Measured values taken from US5015578A, “BMY-41950 antitumor antibiotic” (Bristol-Myers Squibb Company, priority 1990, dated 1991).
Values after ≈ are worked out from the molar mass of the structure shown.

Experiments:
[1] = tested on: B16-F10 (murine melanoma); experiment: In vitro cytotoxicity, B16-F10 cells (crystal violet); type: cell-based; conditions: 72 hours, 50% cell death or growth inhibition; for IC50: Mus musculus, B16-F10, read-out: In Vitro Antitumor Activity IC50, B16-F10
Method: (§1) BMY-41950 was tested for in vitro cytotoxic activity against a murine and a human tumor cell line. In vivo it was tested for activity against a murine leukemia tumor model. In vitro, mitomycin C and cisplatin were used as the reference compounds, while etoposide (VP-16) was used as the in vivo reference.
(§2) B16-F10 (murine melanoma) and HCT-116 (human colon cancer cell clone) cells were cultured in Complete McCoys Media. The media consists of 420 ml McCoys 5A media plus 500 mg sodium bicarbonate in 6 ml water, 6.56 mg L-serine. 1.5 mg L-asparagine and 82.4 mg sodium pyruvate in 2 ml water. 6.25 ml essential amino acids (50X, Gibco), 3.0 ml non-essential amino acids (100X, Gibco), 3 ml L-glutamine (200MM), 3 ml MEM vitamins (Gibco), 6.25 ml penicillin/streptomycin (Gibco) and 50 ml of heat-inactivated defined fetal calf serum.
(§3) The two cell lines are harvested during logarithmic phase cell growth and 3600 cells in 150 microliter media were placed in each well of a 96 well microtiter plate. After 24 hours incubation at 37 degrees Celsius in a 95% air/5% carbon dioxide humidified incubator to allow the cells to attach to the plate, fifty microliters of sample/reference drug is added to 11 of 12 of the top row of wells while 50 microliters of media is added to the 12th. The drugs/media are serially diluted (4 fold dilutions) down the 8 wells of the plate. The cells in the presence of drug/media are then incubated for 72 hours. After fixing with 10% formalin, cells killed by the drug were washed off the plate while those surviving cells are stained with 0.0075% crystal violet. After drying, the stain is solubilized with 10% ethanol and 1% acetic acid, the developed plate quantitated on a Dynatech MR 600 plate reader and the IC50 values (drug concentration at which 50% cell death or growth inhibition occurs) calculated.

[2] = tested on: HCT-116 (human colon cancer cell clone); experiment: In vitro cytotoxicity, HCT-116 cells (crystal violet); type: cell-based; conditions: 72 hours, 50% cell death or growth inhibition; for IC50: Homo sapiens, HCT-116, read-out: In Vitro Antitumor Activity IC50, HCT-116
Method: as §1, §2, §3

[3] = tested on: Staphylococcus aureus A9537; experiment: MIC vs. Staphylococcus aureus A9537, in vitro antimicrobial screening; type: cell-based; conditions: read-out: MIC (Minimum Inhibitory Concentration)
[4] = tested on: Enterococcus faecalis A20688; experiment: MIC vs. Enterococcus faecalis A20688, in vitro antimicrobial screening; type: cell-based; conditions: read-out: MIC (Minimum Inhibitory Concentration)
[5] = tested on: lymphocytic leukemia P388 cells; experiment: In vivo activity in P388 murine leukemia model; parameters: species or system murine (female CDF1 mice); conditions: days 1-5
Method: as §1
In vivo activity of BMY-41950 was determined in a murine leukemia tumor system. Female CDF1 mice were intraperitoneally inoculated with 0.5 ml of diluted ascitic fluid containing 10^6 lymphocytic leukemia P388 cells. Ten mice were untreated and the median survival time of this group was 10 days. Three groups of 4 mice each were treated with BMY-41950 on days 1, 2, 3, 4 and 5 post tumor implant. The drug was administered ip after being initially dissolved in DMSO, Tween 80 and buffered saline. […] Thus the % T/C (survival time of drug treated/survival time of untreated controls×100) was 130%. The criteria for antitumor activity in this murine tumor test is a % T/C of 125 or greater. Thus. BMY-41950 fulfilled the criteria for antitumor activity in the P388 murine leukemia antitumor model.

Solubility = type: physicochemical

Row | SMILES | In Vitro Antitumor Activity IC50, B16-F10 [1] | In Vitro Antitumor Activity IC50, HCT-116 [2] | IC50 [1] | IC50 [2] | MIC [3] | MIC [4] | % T/C (survival time of drug treated/survival time of untreated controls×100) ([5]; 2 mg/kg/day ip, criterion for activity 125 or greater) | median survival time ([5]; 2 mg/kg/day ip, untreated controls 10 days) | drug-induced toxicity / deaths ([5]; 18 and 6 mg/kg/day ip) | Solubility in CHCl3-CH3OH (Solubility; CHCl3-CH3OH (2:1 v/v)) | Solubility in dimethylsulfoxide (DMSO) (Solubility; dimethylsulfoxide (DMSO)) | Solubility in tetrahydrofuran (THF) (Solubility; tetrahydrofuran (THF))
1 | N.N.[Cl][Pt][Cl] [Cisplatin] | 3.9 µg/mL | 15.6 µg/mL |  |  |  |  |  |  |  |  |  | 
2 | CO[C@@]12[C@H](COC(N)=O)C3=C(C(=O)C(C)=C(N)C3=O)N1C[C@@H]1N[C@@H]12 [Mitomycin C] |  |  | 0.98 µg/mL (≈ 2.93 µM) | 0.98 µg/mL (≈ 2.93 µM) |  |  |  |  |  |  |  | 
3 | CNC1CC2OC(C)(C1OC)n1c3ccccc3c3c4c(c5c6ccccc6n2c5c31)C(=O)NC4=O (centres unmarked) [BMY-41950, 7-oxostaurosporine] |  |  | 0.98 µg/mL (≈ 2.04 µM) | 0.24 µg/mL (≈ 0.499 µM) | 6.25 µg/mL (≈ 13 µM) | 12.5 µg/mL (≈ 26 µM) | 130% | 13 days | suffered drug-induced toxicity and all mice died prior to day 7 | soluble | soluble | soluble
